Measurements as given in US4705799A, “Aminomethyl oxooxazolidinyl benzenes useful as antibacterial agents” (E. I. Du Pont de Nemours and Company, priority 1985, dated 1987).
Values after ≈ are worked out from the molar mass of the structure shown. Counter-ions that a name gives are not always drawn. Like-named read-outs stand apart in the source and are kept apart here.

Key:
Escherichia coli = experiment: In vitro broth dilution minimal inhibitory concentration (standard microdilution method); format: cell-based; settings: Escherichia coli, read-out: Microdilution Broth MIC
[1] = tested on: Staphylococcus epidermidis; experiment: as above; format: cell-based; settings: 24 h, read-out: Microdilution Broth MIC
Staphylococcus aureus = experiment: In vivo efficacy of orally administered compounds in mouse intraperitoneal infections; settings: Staphylococcus aureus, po, 168 h, read-out: ED50 (50 percent effective dose)
Description: Determinations of in vivo efficacy are performed by inoculating mice intraperitoneally with cultures of the infecting organism diluted to produce 90-100% mortality in control animals within twenty-four hours. The diluents used were trypticase soy broth for E. coli and 5% aqueous hog gastric mucin for Staphylococcus aureus infections. The compounds are dissolved or suspended in 0.25% aqueous Methocel® (Methocel®: Hydroxypropyl Methylcellulose E15 Premium, Dow Chemical Company) for oral administration or sterile distilled water containing 5% dimethylsulfoxide (Fisher Scientific Company, Fairlawn, N.J.) for subcutaneous administration. The mice are dosed at the time of infection and again at four hours post-infection. Mortality is recorded daily until test termination seven days post infection and the 50 percent effective dose, ED50, is calculated by the Reed-Muench method (Reed, L. G. and Muench, H., "A simple method of estimating fifty percent end points," American Journal of Hygiene, 27, 493-497 (1938).

[2] = mouse i.p. Staphylococcus aureus infection, oral, dosed at infection and 4 h post-infection, 7 days

SMILES	MIC (Escherichia coli; Mueller-Hinton broth, 24-hour) [µg/mL]	MIC ([1]; Mueller-Hinton broth, 24-hour) [µg/mL]	ED50 (Staphylococcus aureus; [2]) [mg/kg]	MIC (Escherichia coli; 24 h) [µg/mL]	MIC [1] [µg/mL]	ED50 (Staphylococcus aureus) [mg/kg]
CC(=O)NCC1CN(c2cccc(C(C)=O)c2)C(=O)O1 (stereo not drawn) [Example 37]	> 200	200 (≈ 724 µM)	62.9	–	–	–
CCCOC(=O)NCC1CN(c2ccc(S(C)(=O)=O)cc2)C(=O)O1 (stereo not drawn) [Example 70]	> 200	50 (≈ 140 µM)	51.7	–	–	–
COC(OC)C(=O)NCC1CN(c2ccc(S(C)(=O)=O)cc2)C(=O)O1 (stereo not drawn) [Example 74]	> 200	100 (≈ 269 µM)	96.6	–	–	–
CS(=O)(=O)c1ccc(N2CC(CNC(=O)C(F)(F)F)OC2=O)cc1 (stereo not drawn) [Example 28]	50 (≈ 136 µM)	12.5 (≈ 34.1 µM)	71.3	–	–	–
CS(=O)(=O)c1ccc(N2CC(CN)OC2=O)cc1 (racemic) [Example 10, (dl)-5-Aminomethyl-3-[4-(methylsulfonyl)phenyl]-2-oxazolidinone trifluoroacetic Acid Salt]	> 100	50	–	–	–	–
CC(=O)NCC1CN(c2ccc([N+](=O)[O-])cc2[N+](=O)[O-])C(=O)O1 (single isomer, unassigned) [Example 147, (l)-N-[3-(2,4-Dinitrophenyl)-2-oxooxazolidin-5-ylmethyl]acetamide]	–	–	–	> 200	200 (≈ 617 µM)	44.4
NS(=O)(=O)c1ccc(N2CC(CNC=O)OC2=O)cc1 (single isomer, unassigned) [Example 24, (l)-N-[3-[4-(Aminosulfonyl)phenyl]-2-oxooxazolidin-5-ylmethyl]formamide]	> 100	> 100	74.3	–	–	–
COc1ccc(N2CC(CNC(C)=O)OC2=O)cc1 (stereo not drawn) [Example 44]	> 200	100 (≈ 378 µM)	30.3	–	–	–
CCCC(=O)NCC1CN(c2ccc(S(C)(=O)=O)cc2)C(=O)O1 (stereo not drawn) [Example 29]	100 (≈ 294 µM)	12.5 (≈ 36.7 µM)	88.7	–	–	–
C=CC(=O)NCC1CN(c2ccc(SC)cc2)C(=O)O1 (stereo not drawn) [Example 40]	> 200	12.5 (≈ 42.8 µM)	53.1	–	–	–
COC(OC)C(=O)NCC1CN(c2ccc(SC)cc2)C(=O)O1 (stereo not drawn) [Example 73]	> 200	> 200	59.5	–	–	–
CSc1ccc(N2CC(CN=[N+]=[N-])OC2=O)cc1 (stereo not drawn) [Example 4]	> 200	> 200	43.3	–	–	–
CNC(=O)NCC1CN(c2ccc(S(C)(=O)=O)cc2)C(=O)O1 (stereo not drawn) [Example 35]	200 (≈ 611 µM)	25 (≈ 76.4 µM)	35.8	–	–	–

Further lines, with some results ahead:

MIC (Escherichia coli; Mueller-Hinton broth, 24-hour) [µg/mL]	MIC ([1]; Mueller-Hinton broth, 24-hour) [µg/mL]	SMILES	ED50 (Staphylococcus aureus; [2]) [mg/kg]	MIC (Escherichia coli; 24 h) [µg/mL]	MIC [1] [µg/mL]	ED50 (Staphylococcus aureus) [mg/kg]
> 200	3.2 (≈ 10.5 µM)	CC(=O)NCC1CN(c2ccc(SCC#N)cc2)C(=O)O1 (single isomer, unassigned) [Example 154, (l)-N-[3-[4-(Cyanomethylthio)phenyl]-2-oxooxazolidin-5-ylmethyl]acetamide]	–	–	–	–
> 128	64 (≈ 242 µM)	CC(=O)NCC1CN(c2ccc(CO)cc2)C(=O)O1 (stereo not drawn) [Example 106]	–	–	–	–
> 50	12.5 (≈ 43.4 µM)	CC(=O)NCC1CN(c2ccc(C#CCO)cc2)C(=O)O1 (stereo not drawn) [Example 103]	–	–	–	–
> 200	> 200	CCOC(OCC)C(=O)NCC1CN(c2ccc(S(C)(=O)=O)cc2)C(=O)O1 (stereo not drawn) [Example 76]	58	–	–	–
> 200	> 200	CCOC(OCC)C(=O)NCC1CN(c2ccc(SC)cc2)C(=O)O1 (stereo not drawn) [Example 75]	130	–	–	–
> 128	32 (≈ 109 µM)	CC(=O)NCC1CN(c2ccc(C(O)CO)cc2)C(=O)O1 (stereo not drawn) [Example 104]	–	–	–	–
> 200	25 (≈ 81.1 µM)	C=CC(=O)NCC1CN(c2ccc([S+](C)[O-])cc2)C(=O)O1 (stereo not drawn) [Example 91]	50.7	–	–	–
> 200	50 (≈ 152 µM)	CSc1ccc(N2CC(CNC(=O)CCCl)OC2=O)cc1 (stereo not drawn) [Example 92]	31	–	–	–
> 128	64 (≈ 196 µM)	CC(=O)NCC1CN(c2ccc(CBr)cc2)C(=O)O1 (single isomer, unassigned) [Example 166, (l)-N-[3-[4-(Bromomethyl)phenyl]-2-oxooxazolidin-5-ylmethyl]acetamide]	–	–	–	–
> 200	50 (≈ 145 µM)	C[S+]([O-])c1ccc(N2CC(CNC(=O)CCCl)OC2=O)cc1 (stereo not drawn) [Example 93]	> 120	–	–	–
